Experimental findings from patent US5521199A, “Piperidinyl compounds as neurokinin receptor antagonists” (Zeneca Limited, priority 1993, dated 1996) are described below.

The target of one assay is T1, human NK2 receptor (Homo sapiens, UniProt P21452).
T1 sequence (P21452 1-398): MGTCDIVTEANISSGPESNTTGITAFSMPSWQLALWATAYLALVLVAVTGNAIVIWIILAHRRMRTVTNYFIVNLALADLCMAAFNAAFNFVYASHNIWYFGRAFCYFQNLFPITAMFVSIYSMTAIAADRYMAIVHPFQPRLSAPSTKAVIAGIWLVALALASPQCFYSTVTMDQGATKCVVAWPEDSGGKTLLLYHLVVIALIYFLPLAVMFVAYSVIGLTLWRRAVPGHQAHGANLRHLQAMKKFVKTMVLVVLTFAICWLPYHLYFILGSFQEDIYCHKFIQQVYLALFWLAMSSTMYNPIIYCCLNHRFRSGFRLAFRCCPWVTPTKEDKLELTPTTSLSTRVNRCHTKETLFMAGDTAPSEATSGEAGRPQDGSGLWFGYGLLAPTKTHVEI
Description: Neurokinin A (NKA) Receptor-binding Assay (Test A). To be noted: 3H-NKA, MELM, 60 min at 25° C., pH 7.4.

The next assay deals with T2, guinea pig trachea (Cavia porcellus, UniProt Q64077).
T2 construct: The trachea are removed, trimmed of excess tissue and divided into two segments; from tissue; host or cells: trachea of male guinea pigs, rings in tissue baths
T2 sequence (Q64077 1-402): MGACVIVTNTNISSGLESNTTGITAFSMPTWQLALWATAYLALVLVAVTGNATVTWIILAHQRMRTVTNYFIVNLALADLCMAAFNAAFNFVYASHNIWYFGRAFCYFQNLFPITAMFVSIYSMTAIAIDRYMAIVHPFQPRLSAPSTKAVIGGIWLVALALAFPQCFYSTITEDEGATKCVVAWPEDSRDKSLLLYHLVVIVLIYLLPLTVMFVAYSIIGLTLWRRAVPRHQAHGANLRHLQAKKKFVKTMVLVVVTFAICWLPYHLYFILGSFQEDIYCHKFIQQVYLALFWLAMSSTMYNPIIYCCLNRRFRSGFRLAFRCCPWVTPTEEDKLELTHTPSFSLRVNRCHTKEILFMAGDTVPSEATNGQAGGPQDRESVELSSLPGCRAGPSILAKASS
Description: Guinea Pig Trachea Assay (Test B). The format is cell-based. To be noted: antagonism of NKA or [β-ala8]-NKA(4-10) contraction; -log molar KB; read-out: pKB (Test B) (converted). As for the experimental part:
Guinea Pig Trachea Assay (Test B)
In the test described below either NKA or [β-ala^8 ]-NKA(4-10) is used as an agonist. The chosen agonist is referred to as AG throughout the description.
Male guinea pigs are killed by a sharp blow to the back of the head. The trachea are removed, trimmed of excess tissue and divided into two segments. […] Initial tension placed on each tissue is 1 g, which is maintained throughout a 0.5 to 1.5 hour equilibration period before addition of other drugs. Contractile responses are measured on a Grass polygraph via Grass FT-03 force transducers.
Tissues are challenged repetitively with a single concentration of AG (10 nM) with intervening 30 min periods with washing to allow the tension to return to baseline levels. […] Percent inhibition is determined when a Compound produces a statistically significant (p<0.05) reduction of the contraction and is calculated using the second contractile response as 100%.
Potencies of selected Compounds are evaluated by calculating apparent dissociation constants (KB) for each concentration tested using the standard equation: […]
where dose ratio=antilog[(AG -log molar EC50 without Compound)--(AG -log molar EC50 with Compound)]. The KB values may be converted to the negative logarithms and expressed as -log molar KB (i.e. pKB). […] The EC50 values are converted to the negative logarithms and expressed as -log molar EC50. […]

In a further assay the test system is NK2 receptor. Description: Guinea Pig Labored Abdominal Breathing (Dyspnea) Assay (Test C). The format is in vivo. The following applies: oral, two hours prior to challenge with the agonist [β-ala8]-NKA(4-10) aerosol; all five animals fully protected. As to the method: Guinea Pig Labored Abdominal Breathing (Dyspnea) Assay (Test C)
Using the clear plastic chamber described previously by Snyder et al. to secure guinea pigs for a head-only aerosol exposure to bronchoconstrictor agonists, agonist is administered by aerosol to six conscious guinea pigs simultaneously during each maneuver. The tachykinin NK2-selective agonist, [β-ala^8 ]-NKA(4-10), 3×10^-5 M, is aerosolized from a Devilbiss Model 25 ultrasonic nebulizer into an air stream entering the chamber at a rate of 2 L/minute.
Guinea pigs (275-400 g) are fasted for approximately 16 hours prior to experimentation. Compounds to be evaluated for blockade of effects of [β-ala^8 ]-NKA(4-10) or their vehicle (10% PEG400 in saline) are administered p.o. or i.v. at various times before aerosol agonist challenge. All animals are pretreated with atropine (10 mg/kg, j.p., 45 minutes pretreatment) indomethacin (10 mg/kg, i.p., 30 minutes pretreatment), propranolol (5 mg/kg, i.p., 30 minutes pretreatment), and thiorphan (1 mg/ml aerosol for 5 minutes, 15 minutes pretreatment)
Aerosol challenge with the agonist produces an initial increase in respiratory rate followed by a decrease with early signs of minor involvement of the abdominal muscles. […] Time, in seconds, from the onset of aerosol challenge to this end point is determined for each animal by using a stopwatch. […]

The structures appear in SMILES notation. Where a name gives a salt, the structure may show the parent alone.

Description for human NK2 receptor: Membrane preparations (MELM) prepared from the MEL cells containing high-affinity NK2 receptors were prepared according to a published protocol (D. Aharony, et al., Neuropeptides (1992) 23, 121-130) with the following minor modifications: (1) Iodoacetamide (1 mM) was included in the homogenization buffer; (2) Homogenization was as published but for a shorter period of 10 seconds once and at a slower speed (setting 10); and (3) The equilibration step with KCl/EDTA was not performed.

As a reminder, the Ki is a measure of affinity in units of concentration, obtained from inhibition or displacement. At human NK2 receptor, `CC(=O)OCCC1CCN(CCC(CN(C)C(=O)c2ccccc2)c2ccc(Cl)c(Cl)c2)CC1` (centres unmarked) [Example 10, N-[2-(3,4-Dichlorophenyl)-4-[4-(2-acetoxyethyl)piperidino]butyl]-N-methylbenzamide hydrochloride] came in with a Ki of 40 nM. Moreover, the Kb on guinea pig trachea was 15.8 nM.

As to `CCC(O)(CC)C1CCN(CC[C@H](CN(C)C(=O)c2ccccc2)c2ccc(Cl)c(Cl)c2)CC1.Cl` [Example 16, (S)-N-[2-(3,4-Dichlorophenyl)-4-[4-(1-ethyl-1-hydroxypropyl)piperidino]butyl]-N-methylbenzamide hydrochloride], at human NK2 receptor, the affinity corresponds to a Ki of 1.5 nM. The Kb at guinea pig trachea is 3.98 nM. Moreover, the “protection (Test C)” value with NK2 receptor stood at 100%.
